The conditions of data set [1]: cited from earlier work.
In data set [2] the test system is similar bacteria. Conditions: 25 μg applied, J. Amer. Chem. Soc. 100, 8004 (1978); cited from earlier work.
For data set [3], the target named is T1, Beta lactamase from E. coli 4787 TEM 1 (Escherichia coli, UniProt P62593).
T1 construct: preparation not described in the excerpts
In words: Degradation of mezlocillin by beta lactamase from E. coli 4787 TEM 1 and its prevention (agar hole test). The data set is classed as biochemical. The following applies: without oxapenem. The procedure:
(§1) Methods: the degradation of mezlocillin was determined with Streptococcus pyogenes W using the agar hole test, the sensitivity limits of which are below 1 mcg/ml.
(§2) Degradation of mezlocillin by beta lactamase and prevention of this degradation by oxapenem "O"

In data set [4] the test system is Beta lactamase from Pseudomonas aeruginosa W. In words: Degradation of mezlocillin by beta lactamase from Pseudomonas aeruginosa W and its prevention (agar hole test). The data set is classed as biochemical. The procedure: as §1, §2
The subject of data set [5] is Staphylococcus aureus 25, 455/1. In words: Decrease in the colony-forming capacity of Staphylococcus aureus 25, 455/1 in liquid nutrient medium. It counts as cell-based. The following applies: control 3.5 × 10^8. The protocol: The colony-forming capacity of the bacteria was determined by plating out the bacteria on OXOID Iso Sensitest Agar. The two methods are international standard methods.
Synergistic effect of the combination. Decrease in the colony-forming capacity of Staphylococcus aureus 25, 455/1 by the action of mezlocillin in liquid nutrient medium.

The test system of data set [6] is intact bacteria. The following applies: antibacterial activity or synergism with ampicillin; Morin and Gorman, page 383; cited from earlier work.
Data set [7] can be described thus: Hydrolysis half life at pH 7.4, 37° C. in aqueous phosphate buffer (UV spectroscopy; measure of the stability). The data set is classed as physicochemical. Conditions: for half-life: aqueous phosphate buffer.
The subject of data set [8] is Staph. aureus DSM 1104. In words: agar diffusion test, Staph. aureus DSM 1104. The data set is classed as cell-based, Staphylococcus aureus. The protocol: The compound IIIe designated as preferred in earlier patent applications (for example in EP 18,305) hydrolyzes in a few minutes and could never be transported efficiently by the blood vessel (pH 7.4, 37° C.) to the site of action undamaged. […] Using Staphylococcus aureus DSM 1104, only an inhibition halo of a few mm was determined in the agar diffusion test after applying 250 μg of IIIe.
(§3) Certain representatives are just as effective against gram-positive as against gram-negative bacteria and resistant bacteria.
A general note: Agar diffusion results depend on both activity and mobility in agar.

The test system of data set [9] is bacteria. In words: antibacterial activity in vitro. The data set is classed as cell-based.
Data set [10] relates to Escherichia coli DSM 1103. In words: agar diffusion test, Escherichia coli DSM 1103. The data set is classed as cell-based.
Excerpt: as §3

The test system of data set [11] is Staph. aureus 012484/77. In words: agar diffusion test, Staph. aureus 012484/77 (penicillin- and cephalosporin-resistant). The data set is classed as cell-based, Staphylococcus aureus.
Excerpt: as §3

In data set [12] the target is cephalosporinase of E. cloacae 908 R (Enterobacter cloacae, UniProt P05364). In words: in vitro inhibition of the cephalosporinase of E. cloacae 908 R. It counts as biochemical. The following applies: relative to formiminothienamycin. From the text: A particular advantage of the oxapenem-3-carboxylic acids according to the invention is that in addition to the abovementioned properties of β-lactamase inhibition they are also themselves antibacterially active per se. It is true that substances having similar properties are known, for example formiminothienamycin (Lit.: Recent Advances in the Chemistry of β-Lactam Antibiotics, ed. by G.I. Gregory, The Royal Society, London, page 279 (1981)). However, the compounds according to the invention show a more rapid, more progressive and more irreversible inhibition of the lactamases with many clinically relevant bacteria. Thus, for example, the cephalosporinase of E. cloacae 908 R is inhibited 780 times more effectively in vitro by the 2-tert-butyl-6-hydroxymethyloxapenem-3-carboxylic acid K salt according to the invention than by formiminothienamycin.
cephalosporinase of E. cloacae 908 R, sequence (P05364 21-381): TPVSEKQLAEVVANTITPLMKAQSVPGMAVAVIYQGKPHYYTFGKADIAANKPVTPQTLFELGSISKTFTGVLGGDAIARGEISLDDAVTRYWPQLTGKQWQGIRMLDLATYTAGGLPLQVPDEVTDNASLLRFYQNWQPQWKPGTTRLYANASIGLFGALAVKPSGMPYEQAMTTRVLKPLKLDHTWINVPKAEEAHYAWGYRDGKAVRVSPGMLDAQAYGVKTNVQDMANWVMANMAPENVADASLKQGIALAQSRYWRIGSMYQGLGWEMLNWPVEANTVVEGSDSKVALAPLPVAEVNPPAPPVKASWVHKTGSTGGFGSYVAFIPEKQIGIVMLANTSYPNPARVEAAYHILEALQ

Data set [13] relates to Escherichia coli W 3110 R6K (TEM 1). In words: agar diffusion test, Escherichia coli W 3110 R6K (TEM 1) (β-lactamase-forming). The data set is classed as cell-based.
The subject of data set [14] is bacteria. Conditions: literature; cited from earlier work.
Data set [15] relates to isolated bacterial enzymes (β-lactamases). Conditions: cited from earlier work.

Entries after “also recorded” stand apart in the source; their conditions may differ. Where a name gives a salt, the structure may show the parent alone. Read-outs that look alike come from different tables or passages of the source.

T1 sequence (P62593 24-286 limits assumed): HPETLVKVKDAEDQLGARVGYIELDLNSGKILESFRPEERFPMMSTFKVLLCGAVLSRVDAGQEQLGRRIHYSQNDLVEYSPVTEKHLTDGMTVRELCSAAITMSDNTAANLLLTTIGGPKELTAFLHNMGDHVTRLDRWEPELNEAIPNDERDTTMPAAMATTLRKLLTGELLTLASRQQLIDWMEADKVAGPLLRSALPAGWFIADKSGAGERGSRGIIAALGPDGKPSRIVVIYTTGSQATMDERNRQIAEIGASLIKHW

Turning to `C[C@@H](O)[C@H]1C(=O)N2C(C(=O)O)=C(SCCN)C[C@H]12` [thienamycin], the “stability (in words)” value in data set [1] (literature) is “very sensitive to hydrolysis”. The inhibition halo diameter in data set [2] was 28-41 mm.
Regarding `CC1(C)S[C@@H]2[C@H](NC(=O)[C@H](NC(=O)N3CCN(S(C)(=O)=O)C3=O)c3ccccc3)C(=O)N2[C@H]1C(=O)O` [mezlocillin], the Mezlocillin remaining in data set [3] (reaction time 0 min) is 100 µg/mL; in data set [3] (reaction time 30 min), 65 µg/mL; in data set [3] (reaction time 60 min) it was 43 µg/mL; in [3] (reaction time 240 min) it was 0 µg/mL; in data set [4] (reaction time 0 min, without oxapenem), 100 µg/mL; in [4] (reaction time 30 min, without oxapenem), 35 µg/mL. This compound also displayed a Mezlocillin remaining in data set [4] (reaction time 60 min, without oxapenem) of 0 µg/mL. Moreover, the “Number of colonies after an action time of 6 hrs” value in data set [5] (2.0 mcg alone) was 1.0 × 10^6 N/ml.
For the compound `CCC1=C(C(=O)O)N2C(=O)CC2O1` (stereo not shown) [potassium salt of 2-ethyl-1-oxapenem-3-carboxylic acid], in data set [6], the “testability against intact bacteria (in words)” value is “too unstable for testing the antibacterial activity or the synergism with ampicillin against intact bacteria; also recorded: too unstable for testing synergism with ampicillin against intact bacteria”.
The term half-life denotes the time needed for the level to fall by half in the phase considered. The low end stands for rapid decline, the high end for slow decline. Turning to `CC1=C(C(=O)O)N2C(=O)C(C)(C)C2O1` (stereo not shown) [Compound IIId], in data set [7], the half-life amounted to 0.833 h.
As for `CC(C)(C)C1=C(C(=O)O)N2C(=O)C(C)(C)C2O1` (stereo not shown) [Compound IIIa, 2-tert-butyl-6.6-dimethyl-1-oxaoen-2-em-3-carboxylic acid], in data set [7], the half-life was 30 h.
On to `CC1=C(C(=O)O)N2C(=O)CC2O1` (stereo not shown) [IIIe], for which the “inhibition halo (in words)” value in data set [8] (250 μg applied) was “a few mm”. For the same compound, in data set [7], the “Hydrolysis half life (in words)” value was “a few minutes”. In data set [9], the “antibacterial efficacy (in words)” value is “virtually ineffective antibacterially”.
Regarding `CC(C)(C)C1=C(C(=O)O)N2C(=O)C[C@H]2O1` [2-tert-butyl-1-oxapen-2-em-3-carboxylic acid], the zone of inhibition at 200 µg/disc in data set [8] (Staphylococcus aureus, DSM1104, 200 μg applied, read-out: inhibition halo diameter) was determined as 45 mm; in [10] (DSM1103, 200 μg applied, read-out: inhibition halo diameter) it was 41 mm; in data set [11] (Staphylococcus aureus, 012484/77, 200 μg applied, read-out: inhibition halo diameter), 47 mm.
Take `CC(C)(C)C1=C(C(=O)O)N2C(=O)C(CO)C2O1` (stereo not shown) [2-tert-butyl-6-hydroxymethyloxapenem-3-carboxylic acid K salt]: the “inhibited times more effectively than by formiminothienamycin” value in data set [12] amounted to 780 times.
`O=C(O)[C@H]1/C(=C/CO)O[C@@H]2CC(=O)N21` [clavulanic acid]: the Mezlocillin remaining in data set [4] (reaction time 0 min, with 1 mcg of inhibitor) worked out at 100 µg/mL; in data set [4] (reaction time 0 min, with 10 mcg of inhibitor) it was 100 µg/mL; in data set [4] (reaction time 30 min, with 1 mcg of inhibitor), 40 µg/mL; in data set [4] (reaction time 30 min, with 10 mcg of inhibitor), 27 µg/mL; in data set [4] (reaction time 60 min, with 1 mcg of inhibitor), 0 µg/mL; in data set [4] (reaction time 60 min, with 10 mcg of inhibitor), 0 µg/mL. In addition, the “Number of colonies after an action time of 6 hrs” value in [5] (0.1 mcg alone) is reported as 1.0 × 10^8 N/ml.
For the compound `CC(C)(C)C1=C(C(=O)O)N2C(=O)C(CO)C2O1` (stereo not shown) [3-tert-butyl-6-hydroxymethyl-7-oxo-4-oxa-1-azabicyclo[3.2.0]hept-2-ene-2-carboxylic acid], the zone of inhibition at 10 µg in [13] (Escherichia coli, read-out: inhibition halo diameter) came out at 29 mm. For the same compound, the zone of inhibition at 10 µg/disc in data set [8] (Staphylococcus aureus, DSM1104, 10 μg applied, read-out: inhibition halo diameter) was determined as 30 mm; in [10] (DSM1103, 10 μg applied, read-out: inhibition halo diameter), 30 mm; in data set [11] (Staphylococcus aureus, 012484/77, 10 μg applied, read-out: inhibition halo diameter), 32 mm.
On to `CCC1=C(C(=O)O)N2C(=O)C(C)(C)C2O1` (stereo not shown) [Compound IIIc], for which the half-life in data set [7] amounted to 1.17 h.
For `CC1(C)S[C@@H]2[C@H](NC(=O)COc3ccccc3)C(=O)N2[C@H]1C(=O)O` [Penicillin V], the “inhibition (in words)” value in data set [13] (130 μg applied) and in data set [11] (130 μg applied) was “not inhibited” each time. Also, the zone of inhibition at 130 µg/disc in data set [8] (Staphylococcus aureus, DSM1104, read-out: inhibition halo diameter) is 42 mm; in [10] (DSM1103, read-out: inhibition halo diameter), 13 mm.
In data set [7], `CC(C)C1=C(C(=O)O)N2C(=O)C(C)(C)C2O1` (stereo not shown) [Compound IIIb] showed a half-life of 2 h.
Consider `CCC1=C(C(=O)O)N2C(=O)C[C@H]2O1` [2-ethyl-1-oxapen-2-em-3-carboxylic acid], for which the “antibacterial efficacy (in words)” value in data set [14] was “virtually ineffective as an antibiotic”. The “inhibition of isolated bacterial enzymes (β-lactamases) (in words)” value in [15] was “Only an inhibition of isolated bacterial enzymes (β-lactamases) was detectable”. Moreover, in data set [1] (aqueous medium), the “stability in aqueous medium (in words)” value was “far too unstable in aqueous medium for antibacterial testing”.
